Test results taken from ChEMBL document CHEMBL1131993, “Binding affinities of 3-(3-phenylisoxazol-5-yl)methylidene-1-azabicycles to acetylcholine receptors” (Bioorg Med Chem Lett, 1999).

Experiments:
[1] = target: T1, Muscarinic acetylcholine receptor M2 (Homo sapiens) (UniProt P08172); assay: Ability to displace [3H]N-methylscopolamine binding to M2 human recombinant muscarinic receptor in CHO cells at concentration 1 uM; assay type: cell-based
T1 sequence (whole entry): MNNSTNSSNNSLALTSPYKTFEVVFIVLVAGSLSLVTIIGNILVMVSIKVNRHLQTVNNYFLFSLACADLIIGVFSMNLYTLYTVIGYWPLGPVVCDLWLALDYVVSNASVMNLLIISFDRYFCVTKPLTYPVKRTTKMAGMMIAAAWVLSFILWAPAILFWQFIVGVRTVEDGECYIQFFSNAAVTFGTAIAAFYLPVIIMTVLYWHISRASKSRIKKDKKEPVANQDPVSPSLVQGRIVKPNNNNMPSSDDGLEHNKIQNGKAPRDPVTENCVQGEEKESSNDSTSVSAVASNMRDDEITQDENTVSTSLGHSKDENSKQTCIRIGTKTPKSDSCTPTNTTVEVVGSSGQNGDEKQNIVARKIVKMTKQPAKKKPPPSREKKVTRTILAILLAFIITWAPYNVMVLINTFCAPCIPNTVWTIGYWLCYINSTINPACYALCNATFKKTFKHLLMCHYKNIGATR

[2] = target: Muscarinic acetylcholine receptor M3 (Homo sapiens) (UniProt P20309); assay: Ability to displace [3H]N-methylscopolamine binding to M3 human recombinant muscarinic receptor in CHO cells at concentration 10 uM; assay type: cell-based
Chain of Muscarinic acetylcholine receptor M3 (Homo sapiens) (P20309 whole entry, looked up): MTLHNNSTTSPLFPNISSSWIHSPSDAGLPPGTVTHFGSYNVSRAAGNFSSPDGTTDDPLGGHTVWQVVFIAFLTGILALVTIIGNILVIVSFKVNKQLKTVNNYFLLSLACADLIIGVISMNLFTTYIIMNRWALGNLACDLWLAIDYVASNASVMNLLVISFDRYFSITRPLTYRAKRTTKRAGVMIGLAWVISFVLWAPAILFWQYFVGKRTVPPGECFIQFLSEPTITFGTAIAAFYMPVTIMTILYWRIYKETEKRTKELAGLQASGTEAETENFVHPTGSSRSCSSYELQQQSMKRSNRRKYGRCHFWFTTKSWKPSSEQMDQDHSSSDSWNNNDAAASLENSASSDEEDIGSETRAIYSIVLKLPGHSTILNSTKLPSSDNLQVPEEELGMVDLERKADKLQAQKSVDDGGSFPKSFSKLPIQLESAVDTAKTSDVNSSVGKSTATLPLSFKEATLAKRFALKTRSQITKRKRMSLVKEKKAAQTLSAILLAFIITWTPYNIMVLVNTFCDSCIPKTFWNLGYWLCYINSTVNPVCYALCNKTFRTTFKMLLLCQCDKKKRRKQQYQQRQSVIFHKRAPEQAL

[3] = target: T2, Muscarinic acetylcholine receptor M1 (Homo sapiens) (UniProt P11229); assay: Ability to displace [3H]N-methylscopolamine binding to M1 human recombinant muscarinic receptor in CHO cells at concentration 10 uM; assay type: cell-based
T2 sequence (whole entry): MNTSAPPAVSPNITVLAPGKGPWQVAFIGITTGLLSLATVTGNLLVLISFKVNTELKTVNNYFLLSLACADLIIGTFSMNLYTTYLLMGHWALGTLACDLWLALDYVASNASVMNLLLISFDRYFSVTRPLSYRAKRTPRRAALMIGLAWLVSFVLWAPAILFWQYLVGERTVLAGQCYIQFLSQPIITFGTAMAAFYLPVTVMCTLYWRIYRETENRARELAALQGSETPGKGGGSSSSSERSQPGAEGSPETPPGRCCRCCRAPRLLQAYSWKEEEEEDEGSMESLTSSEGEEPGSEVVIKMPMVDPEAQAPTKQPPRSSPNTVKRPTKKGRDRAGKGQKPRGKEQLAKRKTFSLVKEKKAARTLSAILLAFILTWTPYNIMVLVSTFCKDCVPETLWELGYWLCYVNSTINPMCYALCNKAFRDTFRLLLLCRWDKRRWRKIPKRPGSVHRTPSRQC

[4] = target: Muscarinic acetylcholine receptor M3 (Homo sapiens) (UniProt P20309); assay: Ability to displace [3H]N-methylscopolamine binding to M3 human recombinant muscarinic receptor in CHO cells at concentration 1 uM; assay type: cell-based
[5] = target: T3, Neuronal acetylcholine receptor (Rattus norvegicus) (UniProt P04757+P09483+P12389+P12390+P12392+P43144+Q9JLB5+P12391+P43143+P20420+Q05941); assay: Ability to displace [3H]cytisine binding to nicotinic receptor in synaptic membrane fractions from rat cerebral cortices at a concentration of 10 uM.; assay type: cell membranes
[6] = target: T1, Muscarinic acetylcholine receptor M2 (Homo sapiens); assay: Ability to displace [3H]N-methylscopolamine binding to M2 human recombinant muscarinic receptor in CHO cells at concentration 10 uM; assay type: cell-based
[7] = target: T2, Muscarinic acetylcholine receptor M1 (Homo sapiens); assay: Ability to displace [3H]N-methylscopolamine binding to M1 human recombinant muscarinic receptor in CHO cells at concentration 1 uM; assay type: cell-based
[8] = target: T4, Muscarinic acetylcholine receptor M1 (Homo sapiens, UniProt P11229); assay: The compound was tested for its binding affinity against M1 human recombinant muscarinic receptor in CHO cells.; assay type: cell-based
T4 sequence (P11229 whole entry): T2 sequence (whole entry)

[9] = target: T3, Neuronal acetylcholine receptor (Rattus norvegicus); assay: Ability to displace [3H]cytisine binding to Nicotinic acetylcholine receptor in synaptic membrane fractions from rat cerebral cortices at a concentration of 10 uM.; assay type: cell membranes

Row | Structure (SMILES) | inhibition [1] [%] | inhibition [2] [%] | inhibition [3] [%] | inhibition [4] [%] | inhibition [5] [%] | inhibition [6] [%] | inhibition [7] [%] | IC50 [8] [nM] | inhibition [9] [%]
1 | COc1ccc(-c2cc(/C=C3/CN4CCC3CC4)on2)cc1OC | 30 | 46 | 81 | 6 | 90 | 71 | 28 | – | –
2 | CC(C)(C)OC(=O)Nc1ccc(-c2cc(/C=C3/CN4CCC3CC4)on2)cc1 | 16 | 87 | 95 | 31 | 43 | 67 | 57 | 806 | –
3 | COc1ccc(-c2cc(/C=C3\CN4CCC3CC4)on2)cc1 | 10 | 18 | 21 | 3 | 25 | 19 | 0 | – | –
4 | Fc1ccc(-c2cc(/C=C3/CN4CCC3CC4)on2)cc1 | – | – | 6 | – | 19 | – | 0 | – | –
5 | COc1ccc(COc2ccc(-c3cc(/C=C4\CN5CCC4CC5)on3)cc2)cc1 | 55 | 37 | 64 | 31 | 0 | 46 | 77 | 809 | –
6 | COc1ccc(-c2cc(/C=C3/CN4CCC3C4)on2)cc1 (stereo unspecified) | 15 | 0 | 45 | 0 | – | 19 | 8 | – | 58
7 | Cc1ccc(-c2cc(/C=C3/CN4CCC3CC4)on2)cc1 | 2 | 15 | 7 | 3 | 70 | 14 | 7 | – | –
8 | Nc1ccc(-c2cc(/C=C3/CN4CCC3C4)on2)cc1 (stereo unspecified) | 1 | 10 | 44 | 0 | 49 | 4 | 7 | – | –
9 | COc1ccc(COc2ccc(-c3cc(/C=C4\CN5CCC4CC5)on3)cc2OCc2ccc(OC)cc2)cc1 | 49 | 98 | 100 | 76 | 0 | 92 | 85 | 260 | –
10 | Nc1ccc(-c2cc(/C=C3\CN4CCC3CC4)on2)cc1 | 0 | 0 | 4 | 0 | – | 5 | 0 | – | 77
11 | COc1ccc(-c2cc(/C=C3\CN4CCC3CC4)on2)cc1OC | 14 | 7 | 22 | 0 | 58 | 22 | 3 | – | –
12 | COc1ccc(COc2ccc(-c3cc(/C=C4/CN5CCC4CC5)on3)cc2)cc1 | 26 | 52 | 93 | 22 | 0 | 83 | 89 | 250 | –
13 | Fc1ccc(-c2cc(/C=C3\CN4CCC3CC4)on2)cc1 | 13 | 10 | 0 | 0 | 19 | 22 | 0 | – | –
14 | Oc1ccc(-c2cc(/C=C3\CN4CCC3C4)on2)cc1 (stereo unspecified) | 1 | 20 | 0 | 10 | 36 | 10 | 0 | – | –
15 | CC(C)(C)OC(=O)Nc1ccc(-c2cc(/C=C3/CN4CCC3C4)on2)cc1 (stereo unspecified) | 3 | 35 | 58 | 26 | 74 | 23 | 0 | – | –
16 | CC(C)(C)OC(=O)Nc1ccc(-c2cc(/C=C3\CN4CCC3CC4)on2)cc1 | 14 | 41 | 59 | 5 | 64 | 36 | 12 | > 10 | –

Row | Structure (SMILES) | inhibition [1] [%] | inhibition [2] [%] | inhibition [3] [%] | inhibition [4] [%] | inhibition [5] [%] | inhibition [6] [%] | inhibition [7] [%] | IC50 [8] [nM] | inhibition [9] [%]
17 | COc1ccc(COc2ccc(-c3cc(/C=C4/CN5CCC4C5)on3)cc2OCc2ccc(OC)cc2)cc1 (stereo unspecified) | 24 | 82 | 91 | 9 | 0 | 78 | 39 | 1230 | –
18 | Cc1ccc(-c2cc(/C=C3\CN4CCC3CC4)on2)cc1 | 0 | 0 | 0 | 0 | 26 | 13 | 0 | – | –
19 | Oc1ccc(-c2cc(/C=C3\CN4CCC3C4)on2)cc1O (stereo unspecified) | 0 | 0 | 0 | 0 | – | 0 | 0 | – | –
20 | COc1ccc(COc2ccc(-c3cc(/C=C4\CN5CCC4C5)on3)cc2)cc1 (stereo unspecified) | – | – | 84 | – | – | – | 69 | – | 0
21 | COc1ccc(COc2ccc(-c3cc(/C=C4/CN5CCC4C5)on3)cc2)cc1 (stereo unspecified) | – | – | 66 | – | 0 | – | 39 | – | –
22 | COc1ccc(-c2cc(/C=C3/CN4CCC3CC4)on2)cc1 | 16 | 63 | 79 | 14 | 68 | 63 | 23 | – | –
23 | Oc1ccc(-c2cc(/C=C3\CN4CCC3CC4)on2)cc1 | 0 | 0 | 2 | 0 | 72 | 7 | 0 | – | –
24 | Oc1ccc(-c2cc(/C=C3/CN4CCC3C4)on2)cc1 (stereo unspecified) | 6 | 11 | 26 | 0 | 81 | 3 | 0 | – | –
25 | C(=C1/CN2CCC1CC2)/c1cc(-c2ccccc2)no1 | 3 | 17 | 13 | 5 | – | 26 | 0 | – | –
26 | CC(C)(C)OC(=O)Nc1ccc(-c2cc(/C=C3\CN4CCC3C4)on2)cc1 (stereo unspecified) | 10 | 53 | 53 | 0 | 75 | 53 | 3 | – | –
27 | COc1ccc(COc2ccc(-c3cc(/C=C4/CN5CCC4CC5)on3)cc2OCc2ccc(OC)cc2)cc1 | 27 | 94 | 100 | 44 | 0 | 89 | 85 | 247 | –
28 | COc1ccc(-c2cc(/C=C3\CN4CCC3C4)on2)cc1 (stereo unspecified) | 7 | 2 | 34 | 0 | – | 24 | 0 | – | 55
29 | COc1ccc(COc2ccc(-c3cc(/C=C4\CN5CCC4C5)on3)cc2OCc2ccc(OC)cc2)cc1 (stereo unspecified) | 77 | 98 | 100 | 88 | 0 | 95 | 87 | 114 | –
30 | C(=C1\CN2CCC1CC2)/c1cc(-c2ccccc2)no1 | 0 | 48 | 51 | 12 | 48 | 38 | 7 | – | –
31 | Oc1ccc(-c2cc(/C=C3/CN4CCC3C4)on2)cc1O (stereo unspecified) | 6 | 0 | 16 | 0 | 64 | 9 | 0 | – | –
